Experiments:
[1] = test system: mutant HbpR protein P4-A-8; conditions: 50 μM PCB-3 vs 50 μM 2-HBP
Source text: (§1) To generate biosensor systems that detect additional analytes, HbpR mutants were generated using a HbpR codon optimized library sequence (SEQ ID NO: 4) and a plasmid containing the same (SEQ ID NO: 8) and selection against different analytes.

[2] = test system: mutant HbpR protein P6-F-8; conditions: 50 μM PCB-1 vs 50 μM 2-PP
Source text: as §1

[3] = test system: mutant HbpR protein P6-A-8; conditions: 50 μM PCB-1 vs 50 μM 2-PP
Source text: as §1

[4] = test system: mutant HbpR protein P6-B-9; conditions: 50 μM PCB-1 vs 50 μM 2-PP
Source text: as §1

HbpR [5] = test: Sensor induction in hydrogel microbeads (eBEADS, amplification circuit strain, AmilCP); type: cell-based, Pseudomonas azelaica
Description: The encapsulated sensing strain's ability to detect low concentrations of 2-PP and produce a visible output signal were evaluated by time series of microscope images. Briefly, the positive control strain and 2-PP with amplification circuit strain were encapsulated in the PAA formulation as previously described above. The microbeads were placed on LB agar plates containing 0.2 mM IPTG, 100 μg/mL carbenicillin, and 50 μg/mL kanamycin supplemented with 0, 1 or 10 μM 2-phenylphenol and incubated at 30° C. Images of the sensing strain microbeads were taken at time points 0, 6, 12, 24, and 48 hours with a Nikon SMZ25 stereoscope.

HbpR [6] = test: β-galactosidase (lacZ) reporter activity of sensing strain pBL_IMP_11 without amplification circuit in liquid culture; type: cell-based, Pseudomonas azelaica
Description: Cultures were grown overnight to saturation and then diluted to an OD600 of 0.2. Cultures were incubated at 30° C. with shaking until an OD600 of 0.7-1 before inducing cultures with 2-phenylphenol dissolved in 100% ethanol. Cultures were incubate for 3 hours or 1 mL samples were taken every hour. For experiments where 2-PP was removed after incubating for 3 hours, cultures were divided in two tubes and centrifuged. One half of the cultures were washed with 1×PBS to remove 2-phenylphenol and resuspended in fresh medium with antibiotics and without 2-phenylphenol. The other half was resuspended in their original medium without washing. Aliquots were taken every hour. […] Statistical significance of results was determined using a Student's two-tailed t-test. The limit of detection (LOD) was calculated using GraphPad Prism software and is defined as the blank plus three times the standard deviation of the blank.
In the bacterial sensor cells when exposed to 2-PP, the HbpR promoter is activated by 2-PP and HbpR protein is expressed from the transfected plasmids. […] The Limit of Detection (LOD) was calculated to be 0.863 μM for this sensor strain (FIG. 1i). […]
In order to test the response of the reporter over time, the sensor strains were treated with various amounts of 2-PP and reporter activity was measured every hour for five hours. […]

HbpR [7] = test: AmilCP visual reporter of sensing strains on agar plates and in liquid culture; type: cell-based, Pseudomonas azelaica
Description: Strains containing AmilCP reporters were incubated overnight to saturation at 30° C. with shaking. Three μl of culture were pipetted onto 6 cm LB-agar plates containing 0.2 mM IPTG, 100 μg/mL carbenicillin, 50 μg/mL kanamycin, and 0 μM, 1 μM, or 10 μM of 2-phenylphenol. Images of the plates were taken at time points 0, 6, 12, 24, and 48 hours with a Nikon SMZ25 stereoscope.
After 12-24 hours on agar plates containing 10 μM 2-phenylphenol, the strains with amplification circuit produced enough AmilCP purple reporter to become just barely visible.
While the response time for the AmilCP reporter was slower than the 2 hour response time observed with the β-galactosidase reporter, use of the AmilCP reporter allowed for reporter visualization without additional equipment. When absorbance at 588 nm was used, addition of the amplification circuit in the AmilCP system allowed for detection of 2-PP at concentrations as low as 1 μM (FIG. 4B). The increase in reporter production through genetic amplification made it feasible for the living sensor to maintain a robust, visual reporter output when encapsulated.

aquatic organisms = conditions: EPA reregistration decision; cited from earlier work
[8] = agar plates, 1 μM and 10 μM 2-phenylphenol

**Q.** With `Clc1ccc(-c2ccccc2)cc1` [PCB-3, polychlorinated biphenyl-3] as the compound, how does the “lacZ reporter expression, mutant P4-A-8” value [1] read?
**A.** selective lacZ reporter expression

**Q.** For `Clc1ccccc1-c1ccccc1` [PCB-1, polychlorinated biphenyl-1], which “lacZ reporter expression, mutant P6-F-8” value [2] is on record?
**A.** selective lacZ reporter expression

**Q.** What about the “lacZ reporter expression, mutant P6-A-8” value [3] of the same compound?
**A.** selective lacZ reporter expression

**Q.** What about the “lacZ reporter expression, mutant P6-B-9” value [4] of the same compound?
**A.** selective lacZ reporter expression

**Q.** What does the source list for `Oc1ccccc1-c1ccccc1` [2-PP, 2-phenylphenol]?
**A.** time to purple color response of encapsulated strain (HbpR [5]; 10 μM 2-PP, 30° C.): ≤ 24 h; response of eBEADS at less than 10 μM (HbpR [5]; after 48 hours, less than 10 μM 2PP): no response; Limit of Detection (LOD) (HbpR [6]; lacZ reporter, no amplification, three hours, blank plus three SD): 0.863 µM; response time of β-galactosidase reporter (HbpR [6]; β-galactosidase reporter): 2 h; lowest 2-PP concentration detected with AmilCP (HbpR [7]; absorbance at 588 nm, with amplification circuit, 24 hours): ≥ 1 µM; AmilCP colour after 48 hours, with amplification circuit (HbpR [7]; [8]): vibrant purple color; AmilCP colour after 48 hours, without amplification circuit (HbpR [7]; [8]): faintly visible; time until AmilCP purple reporter just barely visible (HbpR [7]; agar plates, 10 μM 2-phenylphenol, with amplification circuit): 12 to 24 h; LC50 for some aquatic organisms (aquatic organisms): ≥ 0.32 µg/mL
